Publication PMC5407577, “Functional and genetic evidence that nucleoside transport is highly conserved in Leishmania species: Implications for pyrimidine-based chemotherapy” (International Journal for Parasitology: Drugs and Drug …, 2017)
Read-outs that look alike come from different tables or passages of the source.

Tests used:
LmexNT1 [1] = experiment: [3H]-adenosine uptake by L. mexicana promastigotes; type: cell-based, Leishmania mexicana
Description: Using the standard uptake technique as described for T. brucei and Leishmania species ([Wallace et al., 2002], [Al-Salabi and De Koning, 2005], [Gudin et al., 2006]), the dose- or time-dependent uptake of radiolabeled permeants was investigated. The following radiolabels and specific activities were used: [^3H]-thymidine (Perkin Elmer; 56.6 Ci/mmol); [^3H]-adenosine (American Radiolabeled Chemicals UK; 40 Ci/mmol); [^3H]-uridine (American Radiolabeled Chemicals UK; 30 Ci/mmol); [^3H]-uracil (Perkin Elmer; 24.8 Ci/mmol); [^3H]-inosine (American Radiolabeled Chemicals UK; 20 Ci/mmol); [^3H]-5-fluorouracil (Moravek; 20 Ci/mmol).
(§1) Briefly, cells in the mid-to-late logarithmic stage of growth were harvested by centrifugation for 10 min at 1500×g. The cells were washed twice with transport assay buffer (AB: 33 mM HEPES, 98 mM NaCl, 4.6 mM KCl, 0.55 mM CaCl2, 0.07 mM MgSO4, 5.8 mM NaH2PO4, 0.3 mM MgCl2, 23 mM NaHCO3, 14 mM glucose, pH 7.3), resuspended at a density of 10^8 cells ml^−1 in AB, and left for 20–30 min at room temperature to recover from centrifugation stress. One hundred microliters of cell suspension was incubated at ambient temperature for a predetermined time with 100 μl radiolabeled test compound, in the presence or absence of unlabeled substrate or other competitive inhibitors. The incubation was terminated by the addition of ice-cold stop solution (AB containing saturating levels, usually 10 mM, of unlabeled permeant) and centrifugation through oil for 1 min at 13,000 × g. […] Radioactivity was determined by liquid scintillation counting in a Beckman LS6000 TA scintillation counter. Saturation data, inhibition data, and time courses were plotted to equations for linear or non-linear regression (hyperbolic or sigmoid curves), as appropriate. All experiments were performed in triplicate and on at least three independent occasions.
We next investigated the transport of [^3H]-adenosine in L. mexicana promastigotes, which according to the efficient inhibition of [^3H]-thymidine by adenosine, should be taken up with high affinity.

LmexNT1 [2] = type: cell-based, Leishmania mexicana; conditions: inhibition of 0.25 μM [3H]-uridine uptake in the presence of 1 mM uracil
Method: (§2) Using the standard uptake technique as described for T. brucei and Leishmania species ([Wallace et al., 2002], [Al-Salabi and De Koning, 2005], [Gudin et al., 2006]), the dose- or time-dependent uptake of radiolabeled permeants was investigated.
as §1

LmexUU1 = type: cell-based, Leishmania mexicana; conditions: inhibition of [3H]-uracil uptake, 4 min
Method: as §2, §1

LmajUUT1 = experiment: [3H]-uridine uptake by L. major promastigotes, high-affinity uracil-sensitive component; type: cell-based, Leishmania major; conditions: inhibition of 0.25 μM [3H]-uridine uptake
Method: as §2, §1

LmajNT1 [3] = experiment: [3H]-uridine uptake by L. major promastigotes, low-affinity component; type: cell-based, Leishmania major; conditions: inhibition of 0.25 μM [3H]-uridine uptake
Method: as §2, §1

LmajNT1 [4] = experiment: [3H]-thymidine uptake by L. major promastigotes; type: cell-based, Leishmania major; conditions: inhibition of 0.25 μM [3H]-thymidine uptake (total LmajNT1.1 + LmajNT1.2), 5 min
Method: as §2, §1
Subsequent experiments were performed with a 5 min incubation time.

L. major promastigotes = experiment: total [3H]-uridine uptake by L. major promastigotes; type: cell-based, Leishmania major; conditions: Leishmania major
Method: as §2, §1

LmexNT1 [5] = type: cell-based, Leishmania mexicana; conditions: inhibition of 1 μM [3H]-thymidine uptake, 20 s
Method: as §2, §1
L. donovani is known to express one pyrimidine nucleoside transporter, LdNT1, which also transports adenosine ([Vasudevan et al., 1998], [De Koning et al., 2005]). In order to investigate whether this model held true for L. mexicana, the uptake of [^3H]-thymidine was studied. […] Care was taken throughout this study that whenever inhibition constants (Ki) or Michaelis-Menten constants (Km) were determined the conditions used had been verified to be well within the linear range of uptake.

T. b. brucei strain B48 [6] = experiment: microbe, parasite or virus in culture; type: cell-based; conditions: Trypanosoma brucei, read-out: inhibition of 0.5 μM [3H]-uridine uptake, 250 μM inhibitor
Method: as §2
as §1, with “All experiments were performed in triplicate and on at least three independent occasions.” left out

T. b. brucei strain B48 [7] = experiment: [3H]-inosine uptake in non-transfected T. brucei B48; type: cell-based, Trypanosoma brucei brucei
Method: as §2, §1

LmajNT2 = experiment: [3H]-inosine transport by T. brucei B48 cells expressing LmajNT2; type: cell-based, Leishmania major
Method: (§3) Plasmid construction and transfection was performed according to [Munday et al. (2013)]. The nucleoside transporter genes were isolated from L. mexicana and L. major. […] The primers used in this study (Table S2) were designed to flank the gene of interest, one complementary to the sequence upstream of the 5′ end and the other complementary to the sequence downstream of the 3′ end. All of the nucleoside transporters genes were PCR-amplified from genomic DNA of each strain using the high-fidelity proof-reading polymerase Phusion (New England Biolabs) and cloned into the pGEMTeasy (Promega) vector prior to Sanger sequencing (Source BioScience, Glasgow, UK). […] After confirming the identity of each gene, the nucleoside transporter genes (LmajNT1A, LmajNT1B, LmajNT2, LmexNT1A, LmexNT1B, and LmexNT2) were ligated into the expression vector pHD1336 ([Biebinger et al., 1997]) and then were linearized with NotI digestion. All genes were verified by Sanger sequencing, prior to transfection into T. b. brucei clone B48. B48 parasites (1 × 10^7 cells) were washed into Human T Cell buffer for transfection using the desired cassette with an Amaxa Nucleofector using program X-001. Cells were transferred into pre-warmed HMI-9 medium and allowed to recover for 8–16 h at 37 °C and 5% CO2. Following recovery, transfectants were grown and cloned in selective medium containing 5 μg ml^−1 blasticidin S using limiting dilution.
as §2
(§4) Briefly, cells in the mid-to-late logarithmic stage of growth were harvested by centrifugation for 10 min at 1500×g. […] Radioactivity was determined by liquid scintillation counting in a Beckman LS6000 TA scintillation counter. […]

LmexNT2 = experiment: [3H]-inosine transport by T. brucei B48 cells expressing LmexNT2; type: cell-based, Leishmania mexicana
Method: as §3, with “Cells were transferred into pre-warmed HMI-9 medium and allowed to recover for 8–16 h at 37 °C and 5% CO2. Following recovery, transfectants were grown and cloned in selective medium containing 5 μg ml^−1 blasticidin S using limiting dilution.” left out
as §4

[8] = inhibition of 0.05 μM [3H]-adenosine uptake, read-out: Ki
[9] = 50 nM [3H]-inosine + 250 μM adenosine

For Nc1ncnc2[nH]cnc12 [adenine], the Ki (LmexNT1 [1]; [8]) was greater than 1000 µM, the Ki (LmexNT1 [2]) was greater than 1000 µM and the Ki (LmexUU1) was 288 ± 67 µM. The Ki (LmajUUT1) was 5.14 ± 2.25 µM, the Ki (LmajNT1 [3]) was greater than 1000 µM and the Ki (LmajNT1 [4]) was greater than 1000 µM. The inhibition at 0.25 µM (L. major promastigotes; 3 h, read-out: partial (maximal) inhibition of 0.25 μM [3H]-uridine transport) was 62.7 ± 1.7%.

Work on O=c1[nH]cnc2c1ncn2[C@@H]1O[C@H](CO)[C@@H](O)[C@H]1O [inosine] yielded a Ki (LmexNT1 [5]) of 640 ± 34 µM, a Ki (LmexNT1 [1]; [8]) of 1630 ± 134 µM and a Ki (LmexNT1 [1]; inhibition of [3H]-adenosine uptake, read-out: affinity for inhibition of adenosine transport (Ki)) of 1600 ± 100 µM. It also gave a Ki (LmexNT1 [2]) of 1010 ± 190 µM, a Ki (LmajUUT1) of 0.5 ± 0.16 µM and a Ki (LmajNT1 [3]) greater than 1000 µM. The Ki (LmajNT1 [4]) was 1990 ± 3050 µM, the inhibition at 100 µM (L. major promastigotes; 20 min, read-out: inhibition of 0.25 μM uridine transport in time course over 20 min, 100 μM inhibitor, n = 2) was 83.5% and the inhibition at 100 µM (L. major promastigotes; at 100 μM inhibitor, read-out: inhibition of 0.25 μM [3H]-uridine transport) was 70.8 ± 4.5%. For the same molecule, the inhibition at 250 µM (T. b. brucei strain B48 [6]) was 24.3%, the rate of uptake (T. b. brucei strain B48 [7]; 50 nM [3H]-inosine) was 0.0049 ± 0.0002 pmol(10^7 cells)s^−1 and the “inhibition of 50 nM [3H]-inosine transport” value (shortened to “inhibition of 50 nM”) (T. b. brucei strain B48 [7]; 250 μM adenosine or 1 mM unlabeled inosine (Fig. 7B)) was “fully inhibited”. The “uptake rate in the presence of adenosine” value (LmajNT2; [9]) was 0.0023 ± 0.0001 pmol(10^7 cells)^−1s^−1, the “inhibition of 50 nM” value (LmajNT2; 1 mM inosine) was 99.8% and the “rate of transport in the presence of adenosine” value (LmexNT2; [9]) was 0.0023 ± 0.0003 pmol(10^7 cells)^−1s^−1. The “inhibition of 50 nM” value (LmexNT2; 1 mM inosine) was 99.9%.
